Measured values taken from article PMC6927504, “Screening of House Dust from Chinese Homes for Chemicals with Liver X Receptors Binding Activities and Characterization of Atherosclerotic Activity Using an in Vitro Macrophage Cell Line and ApoE^−/− Mice” (Environmental Health Perspectives, 2019).

Experiments:
RAW264.7 macrophages = experiment: Foam cell formation (ox-LDL, BODIPY 493/503 staining) in RAW264.7 macrophages; assay type: cell-based
Procedure: RAW264.7 cells were obtained from the National Infrastructure of Cell Line Resource of Beijing, China, and the cells used for the experiment were cultured for at least three passages. Dulbecco’s Modified Eagle’s Medium (DMEM)-F12 medium containing 10% fetal bovine serum (FBS) was employed to culture the RAW264.7 cells. RAW264.7 cells were incubated at 37°C with 5% carbon dioxide. The RAW264.7 cells were plated at 2.5×10^5 cells/well (6-well plates), 6.0×10^4 cells/well (24-well plates), and 10^4 cells/well (96-well plates). The RAW264.7 cells were plated and grown overnight; then the medium was removed and fresh DMEM-F12 contained with 0.1% DMSO (control; n=3 ) or TPHP at the concentrations of 1–20,000 nM ( n=3 per group) was added. […] Then the cells were used for the quantitative reverse transcription (qRT)-PCR, cellular cholesterol efflux assay, and foam cell formation experiment.
RAW264.7 cells or mouse peritoneal macrophages were plated in 24-well plates at 6.0×10^4 cells/well and grown overnight. Then the medium was removed and fresh DMEM-F12 containing 10% FBS, 20μg/mL oxidized low-density lipoprotein (ox-LDL), and 0.1% DMSO (control; n=3 ) or TPHP at the concentration of 1–20,000 nM ( n=3 per group) was added. The cells were washed with PBS, followed by fixing in 4% paraformaldehyde for 30 min and staining with boron-dipyrromethene (BODIPY) 493/503 ( 20μg/mL ) and 4′,6-diamidino-2-phenylindole (DAPI; 100 ng/mL ) for 10 min. Foam cell formation was analyzed by high-content microscopy using ImageXpress® Micro XL (Molecular Devices). From each well, 25 image fields were scanned, and MetaXpress® (Molecular Devices) was used to quantify compartmentalized changes in the fluorescence of each cell.

ABCG1 = experiment: qRT-PCR of ABCG1 in peritoneal macrophages isolated from exposed C57BL/6 mice; assay type: in vivo, mouse; settings: 200 mg/kg BW oral gavage for 7 d, control set to 1, p<0.01
Procedure: Total RNA was isolated from RAW264.7 cells and mouse peritoneal macrophages using TRIzol reagent according to the manufacturer’s instructions. Then a Nanovue Plus™ spectrophotometer (GE Healthcare Life Science) was used to analyze the concentration, quality, and purity of the RNA. Total RNA ( 1μg ) was mixed with oligo deoxythymine (dT) ( 1μL ) at 70°C for 5 min and then combined with a mixture containing Moloney murine leukemia virus (MMLV) reverse transcriptase ( 1μL ), deoxy-ribonucleoside triphosphate (dNTP) ( 1.25μL ), Recombinant RNasin® Ribonuclease Inhibitor (Promega) ( 0.65μL ), and MMLV buffer ( 5μL ) at 42°C for 60 min. The SYBR® Green PCR Kit (TOYOBO) was used for RT-PCR analysis. Real-time fluorescence detection was performed using the StepOnePlus™ sequence detection system (Applied Biosystems). […]
All experiments related to animals were approved by the institutional animal care and use committee of Peking University and followed the guidelines for animal experiments of the university as well as for experimental animals in China. […] Body weight (BW) was measured every week during the dosing period. […] Considering that this study assessed the effects of short-term exposure to TPHP, whereas humans are exposed to TPHP over a lifelong period, the present study used exposure doses that were higher than that of human exposure from house dust. […]

human LXRβ = molecular target: T1, human LXRβ (Homo sapiens, UniProt P55055); experiment: cell-based
T1 sequence (P55055 219-460): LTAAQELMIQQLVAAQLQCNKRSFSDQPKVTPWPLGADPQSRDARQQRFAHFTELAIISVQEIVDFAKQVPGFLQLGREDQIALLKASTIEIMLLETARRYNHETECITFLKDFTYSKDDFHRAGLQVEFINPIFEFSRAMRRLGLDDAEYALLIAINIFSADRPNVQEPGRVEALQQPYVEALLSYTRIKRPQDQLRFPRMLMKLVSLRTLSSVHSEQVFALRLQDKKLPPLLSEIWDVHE

SMILES: O=P(Oc1ccccc1)(Oc1ccccc1)Oc1ccccc1 [TPHP, triphenyl phosphate]
- Intensity of foam cell staining relative to control (RAW264.7 macrophages; 100 nM, p<0.01): 1.64±0.02 fold
- Intensity of foam cell staining relative to control (RAW264.7 macrophages; 1,000 nM, p<0.01): 1.67±0.14 fold
- Intensity of foam cell staining relative to control (RAW264.7 macrophages; 5,000 nM, p<0.05): 1.78±0.31 fold
- Intensity of foam cell staining relative to control (RAW264.7 macrophages; 10,000 nM, p<0.05): 2.08±0.45 fold
- Intensity of foam cell staining relative to control (RAW264.7 macrophages; 20,000 nM, p<0.05): 2.09±0.52 fold
- ABCG1 gene expression in peritoneal macrophages relative to control (ABCG1): 0.30±0.08 fold
- IC50 (human LXRβ): 762 nM
